The results in this text go back to ChEMBL document CHEMBL1144207, “Molecular design of potent tyrosinase inhibitors having the bibenzyl skeleton” (Bioorg Med Chem Lett, 2008).

Each structure is given as a SMILES string.

For the assay, the target named is T1, Tyrosinase (Agaricus bisporus, UniProt O42713).
T1 sequence (O42713 whole entry): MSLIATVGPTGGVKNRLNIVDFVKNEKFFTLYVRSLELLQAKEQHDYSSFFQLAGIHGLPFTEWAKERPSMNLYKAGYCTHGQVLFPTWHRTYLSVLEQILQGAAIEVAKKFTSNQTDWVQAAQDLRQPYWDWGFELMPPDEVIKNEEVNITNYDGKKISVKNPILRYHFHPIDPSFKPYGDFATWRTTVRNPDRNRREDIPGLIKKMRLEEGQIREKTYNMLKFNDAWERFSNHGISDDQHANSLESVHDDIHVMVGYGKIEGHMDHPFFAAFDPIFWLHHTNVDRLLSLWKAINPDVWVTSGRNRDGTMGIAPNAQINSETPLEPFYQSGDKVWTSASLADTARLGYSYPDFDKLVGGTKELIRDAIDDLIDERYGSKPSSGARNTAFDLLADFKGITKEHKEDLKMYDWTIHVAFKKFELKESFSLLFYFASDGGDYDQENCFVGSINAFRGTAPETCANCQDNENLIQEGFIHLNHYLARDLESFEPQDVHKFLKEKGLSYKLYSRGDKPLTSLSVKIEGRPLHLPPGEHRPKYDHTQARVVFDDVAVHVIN
Description: Inhibition of mushroom tyrosinase

Turning to `Oc1ccc(CCc2ccc(O)cc2O[C@@H]2OC[C@@H](O)[C@H](O)[C@H]2O)c(O)c1`, it took 1.6 µM to reach half-maximal inhibition (IC50).

Turning to `Oc1ccc(CCc2ccc(O[C@@H]3OC[C@@H](O)[C@H](O)[C@H]3O)cc2O)c(O)c1`, the IC50 was 0.43 µM. This IC50 lies about 3.7-fold lower than the previous one.

For orientation: IC50 means the point on the concentration scale where inhibition reaches its midpoint. Higher therefore signals lower potency.
